As usually defined, the inhibition is the percentage by which the read-out fell short of the control. High values mean a response far below the control, low ones a response near the control.

Consider one compound from patent US6069132A, “Phosphazole compounds” (priority 1997, dated 2000).

The subject of series [1] is IL-1β. The series can be described thus: Inhibition of IL-1β in LPS-stimulated PBMCs. Format: cell-based, human. To be noted: for inhibition at 10 µg/mL / inhibition at 50 µg/mL / inhibition at 100 µg/mL / inhibition at 250 µg/mL: Homo sapiens, PBMC; for inhibition at 10 µg/mL: 10 μg/ml; for inhibition at 50 µg/mL: 50 μg/ml; for inhibition at 100 µg/mL: 100 μg/ml; for inhibition at 250 µg/mL: 250 μg/ml. On the procedure:
The phosphazole T70241 was further evaluated for its activity against IL-1β in PBMCs stumulated with LPS and aliquotes collected after 4, 24 and 48 hour post-stimulation.
Primary cell assays. Primary human peripheral blood mononuclear cells (PBMCS) were isolated as described by Ojwang et al. (114). Isolated monocytes were added to 24-well cluster plates (Costar, Cambridge, Mass.) at a concentration of 1×10^5 viable cells per well. Culture medium or test material dilutions in culture medium were added to the wells, the plates were then incubated at 37° C. for one hour. […] The plates were incubated an additional 4, 24 or 48 hours. The supernatant fluids were then harvested and centrifuged to pellet cells or cellular debris, and the supernatant fluids were stored at -70° C. until they were assayed for the presence of TNFα using a commercially available ELISA kit, such as that described in Example 46.

Series [2] concerns adenosine deaminase (ADA). The series can be described thus: Enzymatic hydrolysis by adenosine deaminase. Format: in vitro ADME, calf. On the procedure: Adenosine deaminase (ADA, adenosine aminohydrolase, EC 3.5.4.4, SIGMA) from calf intestinal mucosa was prepared to give a stock of 1 mg/mL (250-280 units/mL) in pH 7.4, 0.01 M phosphate buffer. The relative rates of hydrolysis of selected compounds by ADA and characterization of the products was carried as follows. […] Fifty-microliter aliquots were taken at time intervals and hydrolysis was quenched by mixing with 0.45 mL of distilled water and then the diluted sample was heated at 95° C. for 6 min to ensure enxyme deactivation. The decrease in substrate concentration and the formation of the products was followed over time by UV-spectroscopic analysis. Adenosine was used as a control in this experiment and one unit is defined as the amount of ADA that hydrolyzes 1.0 μmol of adenosine/min at 25° C.

In series [1] (4 h), `Nc1ncnc2pc[nH]c12` (stereo not drawn) [T70241, 7-amino-1H-1,3-azaphospholo[4,5-d]pyrimidine] gave an inhibition at 10 µg/mL of 18%, an inhibition at 50 µg/mL of 86%, an inhibition at 100 µg/mL of 98% and an inhibition at 250 µg/mL of 99.7%. In series [1] (24 h), this compound came in with an inhibition at 10 µg/mL of 6%, an inhibition at 50 µg/mL of 24%, an inhibition at 100 µg/mL of 78% and an inhibition at 250 µg/mL of 86%. For the same compound, in series [1] (48 h), 10 µg/mL produced 4% inhibition, the inhibition at 50 µg/mL stood at 36%, the inhibition at 100 µg/mL was 70% and testing at 250 µg/mL gave an inhibition of 75%. For the same compound, the “inhibition of IL-1β in PBMCs” value in series [1] (up to 48 hour) is “inhibited IL-1β up to 48 hour in a dose dependent fashion”. Further, the “ADA substrate” value in series [2] was “not a substrate for ADA”. For the same compound, in series [2] (up to 5 hours in presence of ADA), the “hydrolysis by ADA: UV spectra” value is listed as “remained unchanged”.
